Assay results: patent US6951856B2, “Arylethene-sulfonamides” (Actelion Pharmaceuticals Ltd., priority 2000, dated 2005)

Legend:
[1] = molecular target: T1, human recombinant ETB receptors (Homo sapiens, UniProt P24530); assay: Inhibition of [125I]ET-1 binding to membranes from CHO cells carrying human ETB receptors
T1 construct: expressed in transfected cells; host or cells: CHO cells (microsomal membranes)
T1 sequence (P24530 27-442): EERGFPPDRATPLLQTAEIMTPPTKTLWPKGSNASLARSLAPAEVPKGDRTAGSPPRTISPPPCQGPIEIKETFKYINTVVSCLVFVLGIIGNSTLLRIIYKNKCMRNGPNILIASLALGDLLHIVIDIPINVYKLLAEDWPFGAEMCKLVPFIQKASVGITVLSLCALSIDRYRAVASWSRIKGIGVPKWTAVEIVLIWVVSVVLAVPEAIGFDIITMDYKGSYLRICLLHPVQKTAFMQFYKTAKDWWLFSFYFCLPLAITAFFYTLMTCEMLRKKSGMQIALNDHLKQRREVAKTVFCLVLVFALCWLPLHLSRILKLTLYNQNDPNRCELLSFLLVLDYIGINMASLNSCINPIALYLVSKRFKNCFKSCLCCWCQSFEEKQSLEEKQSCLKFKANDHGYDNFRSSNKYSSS
Description: (§1) 1) Inhibition of Endothelin Binding to Membranes from CHO Cells Carrying Human ET Receptors
(§2) For competition binding studies, membranes of CHO cells expressing human recombinant ETA or ETB receptors were used. Microsomal membranes from recombinant CHO cells were prepared and the binding assay made as previously described (Breu V., et al, FEBS Lett 1993; 334:210).
(§3) The assay was performed in 200 uL 50 mM Tris/HCl buffer, pH 7.4, including 25 mM MnCl2, 1 mM EDTA and 0.5% (w/v) BSA in polypropylene microtiter plates. […] After 2 h, the membranes were filtered on filterplates containing GF/C filters (Unifilterplates from Canberra Packard S.A. Zürich, Switzerland). To each well, 50 uL of scintillation cocktail was added (MicroScint 20, Canberra Packard S.A. Zürich, Switzerland) and the filter plates counted in a microplate counter (TopCount, Canberra Packard S.A. Zürich, Switzerland).
(§4) All the test compounds were dissolved, diluted and added in DMSO.

[2] = molecular target: T2, human recombinant ETA receptors (Homo sapiens, UniProt P25101); assay: Inhibition of [125I]ET-1 binding to membranes from CHO cells carrying human ETA receptors; details: CHO cell membranes, 8 pM [125I]ET-1, 2 h at 20° C.
T2 construct: expressed in transfected cells; host or cells: CHO cells (microsomal membranes)
T2 sequence (P25101 21-427): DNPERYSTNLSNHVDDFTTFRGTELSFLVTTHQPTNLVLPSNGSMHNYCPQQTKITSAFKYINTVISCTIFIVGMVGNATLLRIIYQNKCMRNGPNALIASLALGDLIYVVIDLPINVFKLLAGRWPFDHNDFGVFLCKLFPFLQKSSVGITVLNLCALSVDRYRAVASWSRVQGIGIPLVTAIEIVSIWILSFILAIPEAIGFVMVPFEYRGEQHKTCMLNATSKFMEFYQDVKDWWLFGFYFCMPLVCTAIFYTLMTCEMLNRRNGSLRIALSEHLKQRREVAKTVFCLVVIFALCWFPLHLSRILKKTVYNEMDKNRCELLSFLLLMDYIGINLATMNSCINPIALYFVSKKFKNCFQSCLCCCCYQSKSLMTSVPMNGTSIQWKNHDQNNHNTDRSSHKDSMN
Description: as §1, §2, §3, §4

SMILES | IC50 [1] [µM] | IC50 [2] [µM]
Cc1ccc(-c2c(NS(=O)(=O)/C=C/c3ccccc3)ncnc2OCCOc2ncccn2)cc1 [Example 2, 2-phenyl-ethenesulfonic acid {6-[2-(pyrimidin-2-yloxy)-ethoxy]-5-p-tolyl-pyrimidin-4-yl}-amide] | 1.83 | 0.0254
Cc1ccc(-c2c(NS(=O)(=O)/C=C/c3ccccc3)ncnc2OCCOc2ccc(Br)cc2)cc1 [Example 3, 2-phenyl-ethenesulfonic acid {6-[2-(4-bromo-phenoxy)-ethoxy]-5-p-tolyl-pyrimidin-4-yl}-amide] | 0.722 | 0.0463
Cc1ccc(-c2c(NS(=O)(=O)/C=C/c3ccccc3)ncnc2OCCOc2cnccn2)cc1 [Example 4] | 8.61 | 0.273
Cc1ccc(-c2c(NS(=O)(=O)/C=C/c3ccccc3)ncnc2OCCOc2ccc(C(F)(F)F)cn2)cc1 [Example 5, 2-Phenyl-ethenesulfonic acid {5-p-tolyl-6-[2-(5-trifluoromethyl-pyridin-2-yloxy)-ethoxy]-pyrimidin-4-yl}-amide] | 0.13 | 0.0128
Cc1ccc(-c2c(NS(=O)(=O)/C=C/c3ccccc3)ncnc2OCCOc2ccc(Cl)cc2)cc1 [Example 6] | 1.35 | 0.0824
Cc1ccc(-c2c(NS(=O)(=O)/C=C/c3ccccc3)ncnc2OCCOc2ccc(Br)cn2)cc1 [Example 11] | 0.264 | 0.0185
Cc1ccc(-c2c(NS(=O)(=O)/C=C/c3ccccc3)ncnc2OCCOc2nc3ccccc3o2)cc1 [Example 16] | 1.13 | 0.0622
COc1cnc(OCCOc2ncnc(NS(=O)(=O)/C=C/c3ccccc3)c2-c2ccc(C)cc2)nc1 [Example 21] | 0.749 | 0.0147
Cc1ccc(/C=C/S(=O)(=O)Nc2ncnc(OCCOc3ncc(Br)cn3)c2-c2ccc(C)cc2)cc1 [Example 23] | 0.27 | 0.0082
Cc1ccc(/C=C/S(=O)(=O)Nc2ncnc(OCCOc3ncc(Cl)cn3)c2-c2ccc(C)cc2)cc1 [Example 24] | 0.657 | 0.0217
Cc1ccc(-c2c(NS(=O)(=O)/C=C/c3ccc(Cl)cc3)ncnc2OCCOc2ncc(Br)cn2)cc1 [Example 27] | 0.193 | 0.0115
C/C(=C\c1ccccc1)S(=O)(=O)Nc1ncnc(OCCOc2ncc(Br)cn2)c1-c1ccc(C)cc1 [Example 30] | 9.07 | 0.0418
CCc1ccc(-c2c(NS(=O)(=O)/C=C/c3ccccc3)ncnc2OCCOc2ncc(Br)cn2)cc1 [Example 36] | 3.39 | 0.02
Cc1ccc(-c2c(NS(=O)(=O)/C=C/c3ccccc3)ncnc2OCCOc2ncc(Br)cn2)cc1C [Example 40] | 0.629 | 0.0062
Cc1ccc(-c2c(NS(=O)(=O)/C=C/c3cccc(C)c3)ncnc2OCCOc2ncc(Br)cn2)cc1 [Example 41] | 1.78 | 0.0054
O=S(=O)(/C=C/c1ccccc1)Nc1ncnc(OCCOc2ccc(C(F)(F)F)cn2)c1-c1ccc(Cl)cc1 [Example 45] | 0.332 | 0.0193
O=S(=O)(/C=C/c1ccccc1)Nc1ncnc(OCCOc2ncc(Cl)cn2)c1-c1ccc(Cl)cc1 [Example 47] | 0.752 | 0.00704
O=S(=O)(/C=C/c1ccccc1)Nc1ncnc(OCCOc2ncc(F)cn2)c1-c1ccc(Cl)cc1 [Example 50] | 6.89 | 0.031
CSc1cnc(OCCOc2ncnc(NS(=O)(=O)/C=C/c3ccccc3)c2-c2ccc(Cl)cc2)nc1 [Example 51] | 0.173 | 0.00456
Cc1cccc(/C=C/S(=O)(=O)Nc2ncnc(OCCOc3ncc(Br)cn3)c2-c2ccc(Cl)cc2)c1 [Example 52] | 1.49 | 0.0075
COc1cnc(OCCOc2ncnc(NS(=O)(=O)/C=C/c3cccc(C)c3)c2-c2ccc(Cl)cc2)nc1 [Example 53] | 1.36 | 0.021
O=S(=O)(/C=C/c1ccc(Cl)cc1)Nc1ncnc(OCCOc2ncc(Br)cn2)c1-c1ccc(Cl)cc1 [Example 54] | 0.183 | 0.014
Cc1ccc(/C=C/S(=O)(=O)Nc2ncnc(OCCOc3ncc(Cl)cn3)c2-c2ccc(Cl)cc2)cc1 [Example 60] | 0.558 | 0.03

SMILES | IC50 [1] [µM] | IC50 [2] [µM]
C/C(=C\c1ccccc1)S(=O)(=O)Nc1ncnc(OCCOc2ncc(Br)cn2)c1-c1ccc(Cl)cc1 [Example 62] | 4.91 | 0.058
O=S(=O)(/C=C/c1ccccc1)Nc1nc(-c2ccncc2)nc(OCCOc2ncc(Br)cn2)c1-c1ccc(Cl)cc1 [Example 65] | 2.52 | 0.017
Cc1ccc(-c2c(NS(=O)(=O)/C=C/c3cccs3)ncnc2OCCOc2ncc(Cl)cn2)cc1 [Example 69] | 1.65 | 0.006
Cc1ccc(-c2c(NS(=O)(=O)/C=C/c3cccs3)ncnc2OCCOc2ccc(C(F)(F)F)cn2)cc1 [Example 70] | 0.258 | 0.016
Cc1ccc(-c2c(NS(=O)(=O)/C=C/c3cccs3)ncnc2OCCOc2ccc(Br)cn2)cc1 [Example 71] | 0.507 | 0.017
Cc1ccc(-c2c(NS(=O)(=O)/C=C/c3cccs3)nc(-c3ncccn3)nc2OCCOc2ncc(Br)cn2)cc1 [Example 72] | 2.38 | 0.009
Cc1ccc(-c2c(NS(=O)(=O)/C=C/c3cccs3)nc(-c3ncccn3)nc2OCCOc2ncc(Cl)cn2)cc1 [Example 73] | 4.76 | 0.0076
COc1cnc(OCCOc2nc(-c3ncccn3)nc(NS(=O)(=O)/C=C/c3cccs3)c2-c2ccc(C)cc2)nc1 [Example 74] | 3.53 | 0.0078
Cc1ccc(-c2c(NS(=O)(=O)/C=C/c3cccs3)nc(-c3ncccn3)nc2OCCOc2ncc(C)cn2)cc1 [Example 75] | > 10 | 0.0176
COc1cnc(OCCOc2nc(-c3ccncc3)nc(NS(=O)(=O)/C=C/c3ccccc3)c2-c2ccc(C)cc2)nc1 [Example 83] | 7.59 | 0.0275
COc1cnc(OCCOc2ncnc(NS(=O)(=O)/C=C/c3ccccc3)c2-c2ccc(Br)cc2)nc1 [Example 86] | 0.193 | 0.0046
O=S(=O)(/C=C/c1ccccc1)Nc1ncnc(OCCOc2ncc(Cl)cn2)c1-c1ccc(Br)cc1 [Example 87] | 0.439 | 0.0039
O=S(=O)(/C=C/c1cccs1)Nc1ncnc(OCCOc2ncc(Cl)cn2)c1-c1ccc(Br)cc1 [Example 89] | 1.22 | 0.0046
COc1cnc(OCCOc2ncnc(NS(=O)(=O)/C=C/c3cccs3)c2-c2ccc(Br)cc2)nc1 [Example 90] | 0.336 | 0.0043
O=S(=O)(/C=C/c1ccccc1)Nc1ncnc(OCCOc2ncc(C(F)(F)F)cn2)c1-c1ccccc1 [Example 95] | 8.39 | 0.033
CSc1nc(NS(=O)(=O)/C=C/c2ccccc2)c(-c2ccccc2)c(OCCOc2ncc(Br)cn2)n1 [Example 101] | 8.68 | 0.0307
CS(=O)(=O)c1nc(NS(=O)(=O)/C=C/c2ccccc2)c(-c2ccccc2)c(OCCOc2ncc(Br)cn2)n1 [Example 107] | 4.65 | 0.0085
O=S(=O)(/C=C/c1ccccc1)Nc1nc(-c2ccncc2)nc(OCCOc2ncc(Br)cn2)c1-c1ccccc1 [Example 109] | > 10 | 0.039
COCCOc1nc(NS(=O)(=O)/C=C/c2ccccc2)c(-c2ccccc2)c(OCCOc2ncc(Br)cn2)n1 [Example 113] | > 10 | 0.0147
COc1nc(NS(=O)(=O)/C=C/c2ccccc2)c(-c2ccccc2)c(OCCOc2ncc(Br)cn2)n1 [Example 114] | 3.88 | 0.0184
O=S(=O)(/C=C/c1ccccc1)Nc1nc(N2CCCCC2)nc(OCCOc2ncc(Br)cn2)c1-c1ccccc1 [Example 116] | > 10 | 0.0249
COc1ccc(-c2c(NS(=O)(=O)/C=C/c3ccccc3)ncnc2OCCOc2ncc(Br)cn2)cc1 [Example 118] | 1.01 | 0.0098
COc1ccc(-c2c(NS(=O)(=O)/C=C/c3ccccc3)ncnc2OCCOc2ncc(OC)cn2)cc1 [Example 119] | 0.735 | 0.055
